Several values for one entry are separate records, joined by “and”; a condition that tells them apart may be missing. Equal entries are not always repeated.
Experiments:
[1] = test system: patients with PD and constipation; assay: Phase 2 trial Stage 1: adverse events
Description: In Stage 1, ten (10) PD patients received a single escalating dose of squalamine (ENT-01) every 3-7 days beginning at 25 mg and continuing up to 200 mg or the limit of tolerability, followed by 2-weeks of wash-out. Duration of this part of the trial was 22-57 days. The 10 subjects in the sentinel group were assigned to Cohort 1 and participated in 8 single dosing periods. Tolerability limits included diarrhea or vomiting.
Each dose period was staggered, so that subjects 1-2 were administered a single dose of the drug at the lowest dose of 25 mg. Once 24 hours have elapsed, and provided there are no safety concerns, the patient was sent home and brought back on day 4-8 for the next dose. During the days the subjects are home, they completed the daily diaries and e-mailed them to the study coordinators. Subjects 3-10 were dosed after the first 2 subjects have been observed for 72 hours, i.e. on Day 4. Subjects 1-2 were also brought back on Day 4-8 and given a single dose of 50 mg. Once another 24 hours have elapsed and provided there are no safety concerns, the patients were all sent home and instructed to return on Day 7 for the next dosing level. This single dosing regimen was continued until each subject was given a single dose of 200 mg or has reached a dose limiting toxicity (DLT). DLT was the dose which induces repeated vomiting, diarrhea, abdominal pain or symptomatic postural hypotension within 24 hours of dosing.
(§1) Adverse events were coded using the current version of MedDRA. Severity of AEs were assessed by investigators according to CTCAE (v4.03): Grade 1 is labeled as Mild, Grade 2 as Moderate, and Grade 3 and above as Severe. […] The number (percentage) of subjects who experienced an AE during escalation and fixed dosing periods were summarized by dose level and overall for each stage. The denominator for calculating the percentages were based on the number of subjects ever exposed to each dose and overall.

[2] = test system: patients with PD and constipation; conditions: in vivo
Description: In Stage 2, 34 patients were evaluated. […] This dose was then maintained (“fixed dose”) for an additional 3-5 days. After the “fixed dose”, these patients were randomly assigned to either continued treatment at that dose or to a matching placebo, for an additional 4-6 days prior to a 2-week wash-out.
A second cohort of 19 patients received squalamine (ENT-01) escalating from 100 mg/day to a maximum of 250 mg/day without subsequent randomization to squalamine (ENT-01) or placebo. Criteria for dose selection and efficacy were identical to those used in the previous cohort.
as §1

patients with PD = assay: Phase 2 trial Stage 2: CNS symptoms (UPDRS, MMSE, BDI-II, PDHQ, hallucinations); format: in vivo, human
Text: (8) Beck Depression Inventory (BDI-II);
(9) Unified Parkinson's Disease Rating Scale (UPDRS), which consists of 42 items in four subscales (Part I=Non-Motor Aspects of Experiences of Daily Living (nM-EDL) (1.1 cognitive impairment, 1.2 hallucinations and psychosis, 1.3 depressed mood, Part II=Motor Aspects of Experiences of Daily Living (M-EDL), Part III=Motor Examination, and Part IV=Motor Complications;
(10) Mini Mental State Examination (MMSE);
(12) The University of Miami Parkinson's Disease Hallucinations Questionnaire (UM-PDHQ);
Exploratory end-points, in addition to constipation, included for example, (i) depression assessed using the Beck Depression Inventory (BDI-II) (Steer et al. 2000) and Unified Parkinson's Disease Rating Scale (UPDRS); (ii) cognition assessed using the Mini Mental State Examination (MMSE) (Palsteia et al. 2018), Unified Parkinson's Disease Rating Scale (UPDRS), and Trail Making Test (TMT); (iii) sleep and REM-behavior disorder (RBD) using a daily sleep diary, I-Button Temperature Assessment, a REM sleep behavior disorder (RBD) questionnaire (RBDQ) (Stiasny-Kolster et al. 2007), and the UPDRS; (iv) hallucinations assessed using the PD hallucinations questionnaire (PDHQ) (Papapetropoulos et al. 2008), the UPDRS, and direct questioning; (v) fatigue using the Parkinson's Disease Fatigue Scale (PFS-16) and the UPDRS; (vi) motor functions using the UPDRS; and (vii) non-motor functions using the UPDRS.
Assessments were made at baseline and at the end of the fixed dose and washout periods. Circadian system status was evaluated by continuously monitoring wrist skin temperature (Thermochron iButton DS1921H; Maxim, Dallas) following published procedures (Sarabia et al. 2008).
CNS Symptoms in Stage 2: An exploratory analysis was done with respect to the sleep data, the body temperature data, mood, fatigue, hallucinations, cognition and other motor and non-motor symptoms of PD. Continuous measurements within a subject were compared with a paired t-test and continuous measurements between subject groups were compared with a two-group t-test. Categorical data were compared with a chi-squared test or a Fisher's exact test if the expected cell counts are too small for a chi-squared test.
CNS symptoms: CNS symptoms were evaluated at baseline and at the end of the fixed dose period and the wash-out period (Table 16). Total UPDRS score was 64.4 at baseline, 60.6 at the end of the fixed dose period and 55.7 at the end of the wash-out period (p=0.002); similarly, the motor component of the UPDRS improved from 35.3 at baseline to 33.3 at the end of fixed dose to 30.2 at the end of wash-out (p=0.006). MMSE improved from 28.4 at baseline to 28.7 during treatment and to 29.3 during wash-out (p=0.0006). […] PDHQ improved from 1.3 at baseline to 1.8 during treatment and 0.9 during wash-out (p=0.03). Hallucinations were reported by 5 patients at baseline and delusions in 1 patient. […] The frequency of arm or leg thrashing reported in the sleep diary diminished progressively from 2.2 episodes/week at baseline to 0 at maximal dose. […] Unlike stool-related indices, the improvement in many CNS symptoms persisted during wash-out.

C. elegans model of PD = conditions: cited from earlier work
[3] = Stage 1, 10 dosed, Unrelated to ENT-01

## CC(C)[C@@H](CC[C@@H](C)[C@H]1CC[C@H]2[C@@H]3[C@H](O)C[C@H]4C[C@@H](NCCCNCCCCN)CC[C@]4(C)[C@H]3CC[C@]12C)OS(=O)(=O)O (single isomer, unassigned; ent-01) [ENT-01]
[1]; Stage 1
  AEs confined to the GI tract: 88%
[1]; Stage 1, 4/10
  Diarrhea, patients: 40%
  nausea, patients: 40%
[1]; Stage 1, 10 dosed
  Abdominal pain, Mild: 2(20) n, %
  Abdominal pain, Moderate: 3(30) n, %
  Blood in urine, Moderate: 0 n, %
  Diarrhea, Mild: 1(10) n, %
  Diarrhea, Moderate: 3(30) n, %
  Diarrhea, Severe: 0 n, %
  Difficulty falling asleep, Mild: 0 n, %
  Difficulty falling asleep, Moderate: 0 n, %
  Dizziness, Mild: 0 n, %
  Dizziness, Moderate: 0 n, %
  Flatulence, Mild: 2(20) n, %
  Flatulence, Moderate: 0 n, %
  Headache, Mild: 1(10) n, %
  Headache, Moderate: 0 n, %
  Increased urinary frequency, Mild: 0 n, %
  Increased urinary frequency, Moderate: 0 n, %
  Loss of appetite, Moderate: 0 n, %
  Lower GI bleed, Severe: 0 n, %
  Nausea, Mild: 4(40) n, %
  Nausea, Moderate: 0 n, %
  Skin lesions-rash, Mild: 0 n, %
  Skin lesions-rash, Moderate: 0 n, %
  Urinary retention, Mild: 0 n, %
  Urinary retention, Moderate: 0 n, %
  Vomiting, Mild: 1(10) n, %
  Vomiting, Moderate: 0 n, %
  Worsening acid reflux, Mild: 0 n, %
  Worsening acid reflux, Moderate: 0 n, %
  Worsening hemorrhoid, Mild: 0 n, %
  Worsening hemorrhoid, Moderate: 0 n, %
[1]; [3]
  Blood in urine, Mild: 1(10) n, %
  Loss of appetite, Mild: 1(10) n, %
[1]; Stage 1, dose 25 mg
  Common adverse events by dose: Diarrhea: 1
  Common adverse events by dose: Nausea: 0
  Common adverse events by dose: Vomiting: 0
[1]; Stage 1, dose 50 mg
  Common adverse events by dose: Diarrhea: 1
  Common adverse events by dose: Nausea: 0
  Common adverse events by dose: Vomiting: 0
[1]; Stage 1, dose 75 mg
  Common adverse events by dose: Diarrhea: 1
  Common adverse events by dose: Nausea: 0
  Common adverse events by dose: Vomiting: 0
[1]; Stage 1, dose 100 mg
  Common adverse events by dose: Diarrhea: 0
  Common adverse events by dose: Nausea: 1
  Common adverse events by dose: Vomiting: 1
[1]; Stage 1, dose 125 mg
  Common adverse events by dose: Diarrhea: 1
  Common adverse events by dose: Nausea: 2
  Common adverse events by dose: Vomiting: 1
[1]; Stage 1, dose 150 mg
  Common adverse events by dose: Diarrhea: 1
  Common adverse events by dose: Nausea: 0
  Common adverse events by dose: Vomiting: 0
[1]; Stage 1, dose 175 mg
  Common adverse events by dose: Diarrhea: 1
  Common adverse events by dose: Nausea: 1
  Common adverse events by dose: Vomiting: 0
[1]; Stage 1, dose 200 mg
  Common adverse events by dose: Diarrhea: 0
  Common adverse events by dose: Nausea: 2
  Common adverse events by dose: Vomiting: 0
[2]
  Eye infection, Moderate: 0 n, %
Patients with PD; Stage 2, end of fixed dose period, baseline 1.3 (2.99)
  PDHQ, Fixed dose (Mean, SD): 1.8
Patients with PD; Stage 2, end of fixed dose period, baseline 10.9 (7.12)
  BDI-II, Fixed dose (Mean, SD): 9.9
Patients with PD; Stage 2, end of fixed dose period, baseline 11.6 (6.51)
  UPDRS Part 1 (NMS), Fixed dose (Mean, SD): 10.6
Patients with PD; Stage 2, end of fixed dose period, baseline 14.9 (8.11)
  UPDRS Part 2 (Daily living), Fixed dose (Mean, SD): 14.7
Patients with PD; Stage 2, end of fixed dose period, baseline 28.4 (1.75)
  MMSE, Fixed dose (Mean, SD): 28.7
Patients with PD; Stage 2, end of fixed dose period, baseline 35.3 (14.35)
  UPDRS Part 3 (Motor), Fixed dose (Mean, SD): 33.3
Patients with PD; Stage 2, end of fixed dose period, baseline 64.4 (23.72)
  UPDRS Total, Fixed dose (Mean, SD): 60.6
Patients with PD; Stage 2, end of wash-out period, baseline 1.3 (2.99)
  PDHQ, Wash-out (Mean, SD): 0.9 (2.33)
Patients with PD; Stage 2, end of wash-out period, baseline 10.9 (7.12)
  BDI-II, Wash-out (Mean, SD): 8.7 (5.19)
Patients with PD; Stage 2, end of wash-out period, baseline 11.6 (6.51)
  UPDRS Part 1 (NMS), Wash-out (Mean, SD): 9.5 (5.27)
Patients with PD; Stage 2, end of wash-out period, baseline 14.9 (8.11)
  UPDRS Part 2 (Daily living), Wash-out (Mean, SD): 14.1 (8.21)
Patients with PD; Stage 2, end of wash-out period, baseline 28.4 (1.75)
  MMSE, Wash-out (Mean, SD): 29.3 (1.06)
Patients with PD; Stage 2, end of wash-out period, baseline 35.3 (14.35)
  UPDRS Part 3 (Motor), Wash-out (Mean, SD): 30.2 (13.23)
Patients with PD; Stage 2, end of wash-out period, baseline 64.4 (23.72)
  UPDRS Total, Wash-out (Mean, SD): 55.7 (23.69)
Patients with PD; at 100 mg (prokinetic dose of this patient 175 mg)
  hallucinations in one patient: disappeared
Patients with PD; at wash-out
  BDI-II: 8.7
Patients with PD; during treatment
  patients in whom hallucinations and delusions improved or disappeared: 5 of 6
Patients with PD; during treatment, baseline 1.3
  PDHQ: 1.8
Patients with PD; during treatment, baseline 10.9
  BDI-II: 9.9
Patients with PD; during treatment, baseline 28.4
  MMSE: 28.7
Patients with PD; during wash-out
  MMSE: 29.3
  PDHQ: 0.9
Patients with PD; end of fixed dose, baseline 35.3
  motor component of the UPDRS: 33.3
Patients with PD; end of the fixed dose period, baseline 64.4
  Total UPDRS score: 60.6
Patients with PD; end of the wash-out period
  Total UPDRS score: 55.7
Patients with PD; end of wash-out
  motor component of the UPDRS: 30.2
Patients with PD; one patient
  time free of hallucinations following cessation of dosing: 1 month
Patients with PD; single patients
  time without return of hallucinations/delusions following discontinuation: 4 weeks and 2 weeks
C. elegans model of PD; in vivo (Perni et al. 2017)
  formation of aggregates of αS: inhibit the formation of aggregates

## CC(C)[C@@H](CC[C@@H](C)[C@H]1CC[C@H]2[C@@H]3[C@H](O)C[C@H]4C[C@@H](NCCCNCCCCN)CC[C@]4(C)[C@H]3CC[C@]12C)OS(=O)(=O)O [squalamine]
C. elegans model of PD; C. elegans model of PD (Perni et al. 2017)
  muscle paralysis: complete reversal of muscle paralysis
